Experimental data as given in patent US20260308536A1, “NOVEL URICASE VARIANTS AND METHODS OF USE THEREOF” (priority 2023, published 2026).
Substitutions are numbered along the chain they refer to.

How the values were obtained:
Format in all cases: biochemical
[1] = target: T1, PEGylated chimeric pig-baboon uricase, wild type, SEQ ID NO: 5 (Sus scrofa, UniProt P16164, R291K/S46T/T301S); experiment: Michaelis Menten kinetics of uric acid conversion, PEGylated wild type chimeric pig-baboon uricase; conditions: role: substrate, Table 4
T1 construct: His6 (C); made in house; host or cells: E. coli
T1 sequence (P16164 with tags, fused parts or gaps S46T/R291K/T301S limits assumed): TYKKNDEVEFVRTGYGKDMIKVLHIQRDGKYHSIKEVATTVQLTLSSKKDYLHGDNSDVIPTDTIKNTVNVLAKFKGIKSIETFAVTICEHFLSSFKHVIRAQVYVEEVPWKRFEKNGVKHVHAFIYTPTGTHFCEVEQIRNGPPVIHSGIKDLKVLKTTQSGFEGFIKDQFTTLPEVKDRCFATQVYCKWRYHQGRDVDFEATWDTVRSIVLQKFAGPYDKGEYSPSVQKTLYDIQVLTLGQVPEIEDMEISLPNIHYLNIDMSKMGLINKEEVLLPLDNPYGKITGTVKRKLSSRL
Protocol: (§1) PEGylation of the wild type chimeric pig-baboon uricase or its variants was performed by the following procedure: • (1) adding 50 fold molar excess methoxy-PEG-(CH2)5COO—NHS of 10 kDa in molecular weight (Chemical Name: Poly(oxy-1,2-ethanediyl), α-methyl-ω-{2-[(2,5-dioxo-1-pyrrolidinyl)oxy]-6-oxohexyloxy}; NOF America Corporation, Cat #SUNBRIGHT ME-100HS) to purified uricase protein on ice and incubating with stirring for one hour; • (2) verifying radius by DLS (14-15 nm radius ~=wild type); • (3) concentrating PEGylated protein using stirred cell with 50 kDa filter to 15 ml; • (4) loading the concentrated PEGylated protein onto a SUPERDEX 200 HILOAD 26/600 column and eluting with PBS; • (5) pooling fractions identified as being mono-disperse by DLS; • (6) concentrating the pooled fractions using a stirred cell with 50 kDa filter to 5 mg/ml.
(§2) dURC3 and the wild type chimeric pig-baboon uricase were successfully PEGylated, with an average of about 10 PEG molecules conjugated to a uricase monomer, based on SDS-PAGE and size exclusion chromatography with multi-angle static light scattering (SEC-MALS) analysis. The activity quantified by Michaelis Menten kinetic analysis, as well as the melting temperature quantified by differential scanning fluorimetry, of PEGylated dURC3 and PEGylated wild type chimeric pig-baboon uricase was determined using the methods described in Example 1.

[2] = target: T2, chimeric pig-baboon uricase variant 4 (dURC4), F75Q/K76N/K79N/T83Q/E90H/F96H/I100E/Y105D/V119K/K155N/F172Y/L260N/I262T, SEQ ID NO: 4 (Sus scrofa, UniProt P16164, E96H/F102H/F178Y/F81Q/I106E/I268T/K161N/K82N/K85N/L266N/R291K/S46T/T301S/T89Q/V125K/Y111D); experiment: Michaelis Menten kinetics of uric acid conversion, dURC4; conditions: role: substrate; purified enzyme, non-linear regression; Table 3
T2 construct: purified
T2 sequence (P16164 with tags, fused parts or gaps S46T/F81Q/K82N/K85N/T89Q/E96H/F102H/I106E/Y111D/V125K/K161N/F178Y/L266N/I268T/R291K/T301S): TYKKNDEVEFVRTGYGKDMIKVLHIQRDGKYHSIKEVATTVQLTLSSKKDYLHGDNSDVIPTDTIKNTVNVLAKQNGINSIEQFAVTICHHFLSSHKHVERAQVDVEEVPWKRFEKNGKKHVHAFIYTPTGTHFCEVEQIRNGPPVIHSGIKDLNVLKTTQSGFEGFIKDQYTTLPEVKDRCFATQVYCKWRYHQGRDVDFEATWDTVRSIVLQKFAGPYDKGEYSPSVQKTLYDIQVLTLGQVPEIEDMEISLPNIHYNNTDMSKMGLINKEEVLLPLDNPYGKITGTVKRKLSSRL
Protocol: (§3) Variants 1 (dURC1) and 3 (dURC3) were identified as possible lead candidates. Besides the mutations according to the library design, i.e., the designed mutations of F75Q; K79N; T83Q; E90H; F96H; I100E; Y105D; V119K; F172Y; L260N; and I262T, dURC3 comprised an off-position amino acid mutation K76N. An off-position amino acid mutation is defined as having a non-designed amino acid at a non-target site. […] Specifically, in the dURC1 backbone, the following mutations were tested separately: L154T; K155D; K155N; L157H; L157T; T159E; T159Q; and S162D; and in the dURC3 backbone, the K155N mutation was tested. […] The characteristics, including yield, activity, melting temperature measured by DSF, temperature at which 50% of normal activity was lost after heating measured by heat stress activity assay, Michaelis-Menten kinetics parameters, of variants 1, 2, 3, and 4 (i.e., dURC1, dURC2, dURC3 and dURC4), as well as the wild type chimeric pig-baboon uricase, are summarized in Table 2. The amino acid sequences of dURC1, dURC2, dURC3 and dURC4 are shown as SEQ ID NO: 1, 2, 3, and 4, respectively.
(§4) The activity of the purified enzymes was quantified by Michaelis Menten kinetic analysis, using the solution phase microplate assay across a range of substrate concentrations (FIG. 4B).

[3] = target: T3, chimeric pig-baboon uricase variant 1 (dURC1), F75Q/K79E/T83Q/E90H/F96H/I100H/Y105D/V119K/Y127H/F172Y/L260N, SEQ ID NO: 1 (Sus scrofa, UniProt P16164, E96H/F102H/F178Y/F81Q/I106H/K85E/L266N/R291K/S46T/T301S/T89Q/V125K/Y111D/Y133H); experiment: Michaelis Menten kinetics of uric acid conversion, dURC1; conditions: role: substrate; purified enzyme, non-linear regression; Table 3
T3 construct: purified
T3 sequence (P16164 with tags, fused parts or gaps S46T/F81Q/K85E/T89Q/E96H/F102H/I106H/Y111D/V125K/Y133H/F178Y/L266N/R291K/T301S): T2 sequence (P16164 with tags, fused parts or gaps S46T/F81Q/K82N/K85N/T89Q/E96H/F102H/I106E/Y111D/V125K/K161N/F178Y/L266N/I268T/R291K/T301S) with N76K, N79E, E100H, Y127H, N155K, T262I
Protocol: as §3, §4

[4] = target: T4, chimeric pig-baboon uricase variant 2 (dURC2), F75Q/K79E/T83Q/E90H/F96H/I100H/Y105D/V119K/Y127H/K155N/F172Y/L260N, SEQ ID NO: 2 (Sus scrofa, UniProt P16164, E96H/F102H/F178Y/F81Q/I106H/K161N/K85E/L266N/R291K/S46T/T301S/T89Q/V125K/Y111D/Y133H); experiment: Michaelis Menten kinetics of uric acid conversion, dURC2; conditions: role: substrate; purified enzyme, non-linear regression; Table 3
T4 construct: purified
T4 sequence (P16164 with tags, fused parts or gaps S46T/F81Q/K85E/T89Q/E96H/F102H/I106H/Y111D/V125K/Y133H/K161N/F178Y/L266N/R291K/T301S): T2 sequence (P16164 with tags, fused parts or gaps S46T/F81Q/K82N/K85N/T89Q/E96H/F102H/I106E/Y111D/V125K/K161N/F178Y/L266N/I268T/R291K/T301S) with N76K, N79E, E100H, Y127H, T262I
Protocol: as §3, §4

[5] = target: T5, chimeric pig-baboon uricase variant 3 (dURC3), F75Q/K76N/K79N/T83Q/E90H/F96H/I100E/Y105D/V119K/F172Y/L260N/I262T, SEQ ID NO: 3 (Sus scrofa, UniProt P16164, E96H/F102H/F178Y/F81Q/I106E/I268T/K82N/K85N/L266N/R291K/S46T/T301S/T89Q/V125K/Y111D); experiment: Michaelis Menten kinetics of uric acid conversion, dURC3; conditions: role: substrate
T5 construct: purified
T5 sequence (P16164 with tags, fused parts or gaps S46T/F81Q/K82N/K85N/T89Q/E96H/F102H/I106E/Y111D/V125K/F178Y/L266N/I268T/R291K/T301S): T2 sequence (P16164 with tags, fused parts or gaps S46T/F81Q/K82N/K85N/T89Q/E96H/F102H/I106E/Y111D/V125K/K161N/F178Y/L266N/I268T/R291K/T301S) with N155K
Protocol: An off-position amino acid mutation is defined as having a non-designed amino acid at a non-target site. […] Specifically, in the dURC1 backbone, the following mutations were tested separately: L154T; K155D; K155N; L157H; L157T; T159E; T159Q; and S162D; and in the dURC3 backbone, the K155N mutation was tested. […] The amino acid sequences of dURC1, dURC2, dURC3 and dURC4 are shown as SEQ ID NO: 1, 2, 3, and 4, respectively.
as §4

[6] = target: T6, chimeric pig-baboon uricase, wild type, SEQ ID NO: 5 (Sus scrofa, UniProt P16164, R291K/S46T/T301S); experiment: Michaelis Menten kinetics of uric acid conversion, wild type chimeric pig-baboon uricase; conditions: role: substrate; purified enzyme, non-linear regression; Table 3
T6 construct: His6 (C); made in house; host or cells: E. coli
T6 sequence (P16164 with tags, fused parts or gaps S46T/R291K/T301S): T1 sequence (P16164 with tags, fused parts or gaps S46T/R291K/T301S limits assumed)
Source text: The monomeric form of the wild type chimeric pig-baboon uricase comprises the amino acid sequence of SEQ ID NO:5, where threonine is residue #1. The specified mutations in the chimeric pig-baboon uricase variants of this example are indexed to threonine as residue #1, as in SEQ ID NO:5. […] The expression vector pET-26b(+) encodes a His tag containing 6 histidine residues at the C-terminus of the inserted uricase gene.
as §4

[7] = target: T7, PEGylated chimeric pig-baboon uricase variant dURC3, F75Q/K76N/K79N/T83Q/E90H/F96H/I100E/Y105D/V119K/F172Y/L260N/I262T, SEQ ID NO: 3 (Sus scrofa, UniProt P16164, E96H/F102H/F178Y/F81Q/I106E/I268T/K82N/K85N/L266N/R291K/S46T/T301S/T89Q/V125K/Y111D); experiment: Michaelis Menten kinetics of uric acid conversion, PEGylated dURC3; conditions: role: substrate, Table 4
T7 construct: purified, PEGylated with 10 kDa mPEG-NHS, about 10 PEG per monomer
T7 sequence (P16164 with tags, fused parts or gaps S46T/F81Q/K82N/K85N/T89Q/E96H/F102H/I106E/Y111D/V125K/F178Y/L266N/I268T/R291K/T301S): T2 sequence (P16164 with tags, fused parts or gaps S46T/F81Q/K82N/K85N/T89Q/E96H/F102H/I106E/Y111D/V125K/K161N/F178Y/L266N/I268T/R291K/T301S) with N155K
Protocol: as §1, §2

O=c1[nH]c(=O)c2[nH]c(=O)[nH]c2[nH]1 [uric acid]
Vmax [1]: 170 Δabs/min
Apparent kcat [2]: 28.0 ± 0.5 arbitrary units
Apparent kcat [3]: 43 ± 2 arbitrary units
Apparent kcat [4]: 34 ± 1 arbitrary units
higher apparent kcat compared to the wild type ([5]; dURC3 relative to wild type chimeric pig-baboon uricase): 33%
Apparent kcat ([5]; purified enzyme, non-linear regression, Table 3): 40 ± 2 arbitrary units
Apparent kcat [6]: 30 ± 1 arbitrary units
Vmax [7]: 67 Δabs/min
